Laboratory results as given in PMC7267738 (iScience, 2020).

What was measured:
[1] = biological target: c-Met (Homo sapiens, UniProt P08581); format: cell-based
[2] = biological target: purified recombinant c-Met kinase domains (Homo sapiens, UniProt P08581); assay: Biochemical kinase assay
Chain of purified recombinant c-Met kinase domains (P08581 1078-1345 limits assumed): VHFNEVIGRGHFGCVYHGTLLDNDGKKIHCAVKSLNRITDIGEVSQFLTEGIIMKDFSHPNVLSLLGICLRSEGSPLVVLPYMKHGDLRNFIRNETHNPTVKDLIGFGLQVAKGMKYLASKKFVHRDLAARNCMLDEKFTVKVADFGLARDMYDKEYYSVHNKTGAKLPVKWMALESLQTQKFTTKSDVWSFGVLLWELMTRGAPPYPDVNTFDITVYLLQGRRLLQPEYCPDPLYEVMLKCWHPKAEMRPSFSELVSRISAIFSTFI

Chain of c-Met (P08581 25-1390): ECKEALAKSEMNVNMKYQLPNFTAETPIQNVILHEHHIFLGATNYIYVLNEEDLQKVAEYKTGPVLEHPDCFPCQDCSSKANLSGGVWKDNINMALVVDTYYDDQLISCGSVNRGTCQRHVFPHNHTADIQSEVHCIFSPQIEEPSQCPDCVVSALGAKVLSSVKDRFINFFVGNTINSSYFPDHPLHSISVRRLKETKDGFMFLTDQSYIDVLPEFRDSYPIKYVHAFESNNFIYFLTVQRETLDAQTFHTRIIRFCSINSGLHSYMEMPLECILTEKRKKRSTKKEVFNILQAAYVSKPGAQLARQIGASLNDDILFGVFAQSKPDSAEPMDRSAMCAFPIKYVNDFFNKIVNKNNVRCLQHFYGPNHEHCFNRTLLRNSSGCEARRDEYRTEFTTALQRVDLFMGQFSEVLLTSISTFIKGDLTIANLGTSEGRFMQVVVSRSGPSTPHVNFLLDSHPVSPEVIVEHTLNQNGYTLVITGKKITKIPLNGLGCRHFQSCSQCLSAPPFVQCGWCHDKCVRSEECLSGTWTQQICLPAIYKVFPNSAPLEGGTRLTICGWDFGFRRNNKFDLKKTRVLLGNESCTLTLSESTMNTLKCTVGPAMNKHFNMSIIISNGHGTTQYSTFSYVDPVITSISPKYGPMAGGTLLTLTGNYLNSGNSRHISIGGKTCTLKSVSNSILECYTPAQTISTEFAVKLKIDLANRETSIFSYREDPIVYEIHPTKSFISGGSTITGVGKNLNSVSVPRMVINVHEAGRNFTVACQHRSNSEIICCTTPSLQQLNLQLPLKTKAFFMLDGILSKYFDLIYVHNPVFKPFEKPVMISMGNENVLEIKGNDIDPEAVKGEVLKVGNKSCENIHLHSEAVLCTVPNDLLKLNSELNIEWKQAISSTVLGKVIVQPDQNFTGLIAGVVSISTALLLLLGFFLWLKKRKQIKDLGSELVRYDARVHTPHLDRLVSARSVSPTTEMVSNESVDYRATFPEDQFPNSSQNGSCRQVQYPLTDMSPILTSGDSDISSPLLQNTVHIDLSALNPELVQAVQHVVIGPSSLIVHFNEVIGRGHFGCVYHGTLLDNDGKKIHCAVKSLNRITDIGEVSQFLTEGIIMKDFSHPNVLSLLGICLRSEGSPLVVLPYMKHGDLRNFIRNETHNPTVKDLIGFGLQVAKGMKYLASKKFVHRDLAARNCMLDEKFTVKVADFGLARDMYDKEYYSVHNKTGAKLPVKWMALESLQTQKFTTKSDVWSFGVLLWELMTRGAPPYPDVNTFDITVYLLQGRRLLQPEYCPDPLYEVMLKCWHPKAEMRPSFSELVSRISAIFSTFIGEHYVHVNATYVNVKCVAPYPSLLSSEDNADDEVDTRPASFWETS

IC50 [1]: 25 µM | IC50 [2]: 0.0403 µM
Compound: COc1cc2ncnc(Oc3ccc(Nc4nccc5[nH]cc(-c6ccc(C(F)(F)F)cc6)c(=O)c45)cc3F)c2cc1OC [Compound 5d]
